ChEMBL document CHEMBL4311972, “Discovery of a benzothiophene-flavonol halting miltefosine and antimonial drug resistance in Leishmania parasites through the application of medicinal chemistry, screening and genomics” (Eur J Med Chem, 2019)
Calls of active or inactive are those of the source. The rule behind the calls is not given here.

Assays:
[1] = Toxicity in Syrian hamster infected with Leishmania infantum BCN150 promastigotes assessed as effect on AST level at 40 mg/kg/day, po for 10 days formulated with 8% v/v DMSO measured after the last treatment; type: organism-based, Mesocricetus auratus; settings: in vivo, 240 h
Leishmania donovani [2] = assay: Antileishmanial activity against Leishmania donovani 1SR promastigotes assessed as parasite growth at IC50 concentration incubated with compound for 3 days under selective pressure and selection cycle repeated 10 times for total of 33 days and measured at 3 to 33 days of selection relative to control; type: functional
[3] = Toxicity in Syrian hamster infected with Leishmania infantum BCN150 promastigotes assessed as liver weight at 40 mg/kg/day, po for 10 days formulated with 50% v/v cyclodextrin (reference value: 5.892 +/- 0.446 g); type: organism-based, Mesocricetus auratus; settings: in vivo, 240 h
[4] = Toxicity in Syrian hamster infected with Leishmania infantum BCN150 promastigotes assessed as spleen lesions at 40 mg/kg/day, po for 10 days formulated with 8% v/v DMSO measured under necropsy; type: organism-based, Mesocricetus auratus; settings: in vivo, 240 h
[5] = Cytotoxicity against human THP1 cells by MTT assay; type: cell-based, THP-1
Albumin [6] = target: Albumin (Homo sapiens, UniProt P02768); assay: Binding affinity to human serum albumin in phosphate buffer assessed as decrease in emission intensity at 450 nm at 5 uM measured at pH 8 at albumin concentration of 0.6 +/-0.1 uM by fluorescence emission spectrum analysis; type: ADME; set-up: scale not given: the % may be the effect or the level left; settings: isolated protein
Albumin (Homo sapiens, UniProt P02768), sequence (P02768 whole entry): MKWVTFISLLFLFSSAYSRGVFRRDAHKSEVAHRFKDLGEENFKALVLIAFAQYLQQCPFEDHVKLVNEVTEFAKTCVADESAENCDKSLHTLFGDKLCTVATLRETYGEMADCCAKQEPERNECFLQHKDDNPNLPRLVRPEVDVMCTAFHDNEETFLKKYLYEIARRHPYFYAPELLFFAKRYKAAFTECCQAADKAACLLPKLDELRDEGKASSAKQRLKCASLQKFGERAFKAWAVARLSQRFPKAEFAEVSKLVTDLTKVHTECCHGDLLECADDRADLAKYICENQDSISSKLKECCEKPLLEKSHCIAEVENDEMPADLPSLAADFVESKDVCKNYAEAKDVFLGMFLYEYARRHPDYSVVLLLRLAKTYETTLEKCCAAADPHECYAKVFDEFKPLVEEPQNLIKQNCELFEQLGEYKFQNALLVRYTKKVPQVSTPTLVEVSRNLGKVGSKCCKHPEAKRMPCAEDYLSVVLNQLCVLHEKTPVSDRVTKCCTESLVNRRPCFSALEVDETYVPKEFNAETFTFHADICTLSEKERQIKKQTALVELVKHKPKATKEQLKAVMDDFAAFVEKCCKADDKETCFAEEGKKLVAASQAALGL

Leishmania donovani [7] = assay: (§1) Antileishmanial activity against antimony resistant Leishmania donovani BPK190 promastigotes infected in C57BL/6 mouse bone marrow-derived macrophages assessed as reduction in parasite load at 10 uM treated with compound at 24 hrs post-infection measured after 72 hrs post infection by q-PCR analysis relative to control; type: functional
[8] = Tmax in BALB/c mouse at 1 mg/kg, iv measured upto 72 hrs by snapshot method; type: ADME, organism-based; settings: in vivo
[9] = Toxicity in Syrian hamster infected with Leishmania infantum BCN150 promastigotes assessed as adverse effects at 20 mg/kg/every 12 hrs, po for 10 days formulated with 30% v/v cyclodextrin measured daily; type: organism-based, Mesocricetus auratus; settings: in vivo
[10] = Toxicity in Syrian hamster infected with Leishmania infantum BCN150 promastigotes assessed as effect on plasma creatinine level at 40 mg/kg/day, po for 10 days formulated with 30 to 50% v/v cyclodextrin measured after the last treatment; type: organism-based, Mesocricetus auratus; settings: in vivo, 240 h
Albumin [11] = target: T1, Albumin (Bos taurus, UniProt P02769); assay: Binding affinity to bovine serum albumin in phosphate buffer assessed as decrease in emission intensity at 450 nm at 5 uM measured at pH 8 by fluorescence emission spectrum analysis; type: ADME; settings: cattle, isolated protein
T1 sequence (P02769 whole entry): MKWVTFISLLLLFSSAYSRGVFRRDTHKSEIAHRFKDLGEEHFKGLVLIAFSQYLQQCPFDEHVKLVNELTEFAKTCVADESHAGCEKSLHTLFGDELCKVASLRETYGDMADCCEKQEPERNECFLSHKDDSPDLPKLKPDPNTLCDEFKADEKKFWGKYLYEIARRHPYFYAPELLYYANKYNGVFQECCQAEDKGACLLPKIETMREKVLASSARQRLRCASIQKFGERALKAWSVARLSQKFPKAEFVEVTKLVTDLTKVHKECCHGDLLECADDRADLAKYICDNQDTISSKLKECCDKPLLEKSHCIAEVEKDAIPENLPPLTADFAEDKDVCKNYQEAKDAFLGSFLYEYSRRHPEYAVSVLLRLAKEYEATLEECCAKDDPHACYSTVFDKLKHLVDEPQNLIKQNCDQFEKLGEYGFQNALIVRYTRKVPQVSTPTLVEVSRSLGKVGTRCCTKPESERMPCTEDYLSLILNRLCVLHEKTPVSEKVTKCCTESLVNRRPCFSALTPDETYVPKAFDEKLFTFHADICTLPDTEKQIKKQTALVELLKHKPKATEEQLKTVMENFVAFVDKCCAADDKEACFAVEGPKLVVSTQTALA

[12] = Binding affinity to trypsin in bovine pancreas in phosphate buffer assessed as increase in emission intensity at 530 nm at 5 uM measured at pH 8 by fluorescence emission spectrum analysis; type: ADME, Bos taurus; settings: cattle
Leishmania donovani [13] = assay: as §1, with “5” for “10”; type: functional
Leishmania infantum [14] = assay: Antileishmanial activity against Leishmania infantum amastigotes infected in Syrian hamster assessed as reduction in parasite load at 40 mg/kg/day, po for 10 days formulated with 8% v/v DMSO relative to control; type: functional; settings: 240 h
[15] = Toxicity in Syrian hamster infected with Leishmania infantum BCN150 promastigotes assessed as effect on alkaline phosphatase level at 40 mg/kg/day, po for 10 days formulated with 30 to 50% v/v cyclodextrin measured after the last treatment; type: organism-based, Mesocricetus auratus; settings: in vivo, 240 h
[16] = Chemical stability of compound in DMSO at 60 uM assessed as drug degradation measured at room temperature in dark after 1 day by UV-vis spectrophotometric analysis; type: physicochemical; settings: read-out: Drug degradation
Leishmania infantum [17] = assay: Antileishmanial activity against Leishmania infantum amastigotes infected in Syrian hamster assessed as reduction in parasite load at 40 mg/kg/day, po for 10 days formulated with 30% v/v cyclodextrin relative to control; type: functional; settings: 240 h
[18] = Plasma concentration in syrian hamster infected with Leishmania infantum BCN150 promastigote at 40 mg/kg/day, po for 10 days formulated with 8% v/v DMSO; type: ADME, organism-based, Mesocricetus auratus
[19] = Toxicity in Syrian hamster infected with Leishmania infantum BCN150 promastigotes assessed as liver lesions at 40 mg/kg/day, po for 10 days formulated with 30 to 50% v/v cyclodextrin measured under necropsy; type: organism-based, Mesocricetus auratus; settings: in vivo, 240 h
Leishmania infantum [20] = assay: Anti-leishmanial activity against Leishmania infantum BCN150 promastigotes infected in Syrian hamster assessed as decrease in anti-leishmanial IgG level at 40 mg/kg/day, po for 10 days formulated with […] v/v DMSO by ELISA; type: functional, organism-based
[21] = Toxicity in Syrian hamster infected with Leishmania infantum BCN150 promastigotes assessed as spleen weight at 40 mg/kg/day, po for 10 days formulated with 50% v/v cyclodextrin (reference value: 0.191 +/- 0.061 g); type: organism-based, Mesocricetus auratus; settings: in vivo, 240 h
[22] = Half-life in BALB/c mouse at 20 mg/kg, po measured upto 72 hrs by snapshot method; type: ADME, organism-based; settings: in vivo
Albumin [23] = target: T1, Albumin; assay: Binding affinity to bovine serum albumin in phosphate buffer assessed as increase in emission intensity at 530-550 nm at 5 uM measured at pH 8 at albumin concentration of 12 uM by fluorescence emission spectrum analysis; type: ADME; settings: cattle, isolated protein, pH 8, 5 µM
[24] = Chemical stability of compound in PBS assessed as decrease in absorbance at 60 uM at pH 7 to 8 and 25 degC measured within 50 mins under dark conditions by UV-vis spectrophotometry analysis; type: physicochemical; settings: read-out: Drug degradation
[25] = Plasma concentration in syrian hamster infected with Leishmania infantum BCN150 promastigote at 40 mg/kg/day, po for 10 days formulated with 30% v/v cyclodextrin; type: ADME, organism-based, Mesocricetus auratus
[26] = Toxicity in Syrian hamster infected with Leishmania infantum BCN150 promastigotes assessed as adverse effects at 20 mg/kg/every 12 hrs, po for 10 days formulated with 50% v/v cyclodextrin measured daily; type: organism-based, Mesocricetus auratus; settings: in vivo
[27] = Toxicity in Syrian hamster infected with Leishmania infantum BCN150 promastigotes assessed as dizziness at 20 mg/kg/day, po for 10 days measured daily; type: organism-based, Mesocricetus auratus; settings: in vivo, 240 h
[28] = Toxicity in Syrian hamster infected with Leishmania infantum BCN150 promastigotes assessed as nausea at 20 mg/kg/day, po for 10 days measured daily; type: organism-based, Mesocricetus auratus; settings: in vivo, 240 h
Leishmania infantum [29] = assay: Antileishmanial activity against Leishmania infantum amastigotes infected in Syrian hamster assessed as reduction in parasite load in spleen at 20 mg/kg/day, po for 10 days relative to control; type: functional; settings: 240 h
[30] = Toxicity in Syrian hamster infected with Leishmania infantum BCN150 promastigotes assessed as effect on plasma urea level at 20 mg/kg/day, po for 10 days measured after the last treatment; type: organism-based, Mesocricetus auratus; settings: in vivo, 240 h
[31] = Toxicity in Syrian hamster infected with Leishmania infantum BCN150 promastigotes assessed as spleen weight at 20 mg/kg/day, po for 10 days (reference value: 0.182 +/- 0.036 g); type: organism-based, Mesocricetus auratus; settings: in vivo, 240 h
[32] = Toxicity in Syrian hamster infected with Leishmania infantum BCN150 promastigotes assessed as effect on alkaline phosphatase level at 20 mg/kg/day, po for 10 days measured after the last treatment; type: organism-based, Mesocricetus auratus; settings: in vivo, 240 h
Leishmania donovani [33] = assay: Antileishmanial activity against Leishmania donovani 1SR promastigotes assessed as parasite growth at IC50 concentration incubated with compound for 3 days under selective pressure and selection cycle repeated 10 times for total of 33 days and measured at 3 to 33 days of selection; type: functional, organism-based

COc1ccc2oc(-c3csc4ccccc34)c(O)c(=O)c2c1
Activity [1]: Non-Toxic | Activity (Leishmania donovani [2]): <50% | Activity [3]: 5.522 g | Activity [4]: Non-Toxic | CC50 [5]: 25 to 50 µM | Activity (Albumin [6]): 50% | inhibition at 10 µM (Leishmania donovani [7]): 69% | Tmax [8]: 4.8 min | Activity [9]: Non-Toxic | Activity [10]: Non-Toxic | Activity (Albumin [11]): Active | Activity [12]: Active | inhibition at 5 µM (Leishmania donovani [13]): 78% | inhibition in vivo at 40 mg/kg/day (Leishmania infantum [14]): 25.9% | Activity [15]: Non-Toxic | degraded at 24 h, 60 µM [16]: 1% | inhibition in vivo at 40 mg/kg/day (Leishmania infantum [17]): 28.8% | concentration at 240 h [18]: 44 nM | Activity [19]: Non-Toxic | inhibition (Leishmania infantum [20]): Active | Activity [21]: 0.191 g | half-life [22]: 46.9 h | Activity (Albumin [23]): 50% | degraded at 50 min, 60 µM [24]: 80% | concentration at 240 h [25]: 76 nM | Activity [26]: Non-Toxic

CCCCCCCCCCCCCCCCOP(=O)([O-])OCC[N+](C)(C)C [MILTEFOSINE]
Activity [27]: Toxic | Activity [28]: Toxic | inhibition in vivo at 20 mg/kg/day (Leishmania infantum [29]): 97.3% | Activity [30]: Non-Toxic | Activity [31]: 0.191 g | Activity [32]: Non-Toxic | inhibition (Leishmania donovani [33]): inactive
